Legend:
[1] = tested on: SIVmac239M2; assay: SIV-IPDA intact and total provirus in PBMC; assay type: in vivo, rhesus macaques
Method: To determine the impact of galunsiertib on SIV reservoir, CA-vDNA was measured in PBMC, colorectal biopsies and lymph nodes (LN). […] In the gut and LN (right axillary), decreases range from a Log to ⅓ of a Log (gut: median 0.77; range:0.33-0.94 folds LN: median: 0.93; range:0.33-0.98 folds decrease). In the PBMC the decrease was slightly less pronounced with a median half Log decrease ([…] median: 0.58; range 0.28-0.88 folds decrease). However, the comparison for the PBMCs was between week ˜35 and week ˜45 (end of cycle 3, AC3) instead of the end of all 4 cycles, because a snap frozen pellet was not available at the end of cycle 4 for PBMCs. The SIV reservoir in PBMCs was also monitored by SIV-IPDA comparing before cycle 1 (BC1) to the end of cycle 4 (AC4). […] Intact provirus declined similarly to the CA-vDNA with a median of half Log (median: 0.53; range:0-0.71 folds decrease).
(§1) Blood was collected in EDTA tubes and plasma was separated by density gradient centrifugation and used for the determination of plasma VL by SIVgag qRT-PCR at NIRC or at Leidos (Quantitative Molecular Diagnostics Core, AIDS and Cancer Virus Program Frederick National Laboratory). Tissue VL from snap frozen PBMC pellets, colorectal biopsies and LN FNA were performed as described in (77). SIV-TILDA was performed on freshly stored PBMC before cycle 1 and at the end of cycle 4 of galunisertib by Accelevir, Baltimore, MD.

[2] = tested on: SIV-env; assay: Anti-envelope antibody titers (ELISA); assay type: in vivo, rhesus macaques; conditions: in 3 of the 7 macaques
Method: 96-well plates were coated with the SIV gp130 Recombinant protein 595 (AIDS reagents program, Division of AIDS, NIAID, NIH at 1 μg/ml in coating carbonate buffer 2 hours at room temperature (RT). After washing the plates 4 times with washing buffer, the plates were incubated in blocking buffer (2% BSA in PBS) overnight. Plates were washed and dilutions of test sera or control sera were added to the plate starting at 1:50. Sera were incubated at 37° C. for 30′ and plate washed and detected with anti-Rhesus IgG HRP (NHPRR) 30′ at 37° C. After washing and substrate incubation at RT for 30′ plates were read at 450/650 nm.

[3] = tested on: U1 cells; assay: PMA-induced HIV reactivation in U1 cells, intracellular p24 staining; assay type: cell-based
Method: ACH2 cells and U1 cells were obtained through the NIH HIV Reagent Program, Division of AIDS, NIAID, NIH (contributed by Dr. Thomas Folks). Cells ([…]) were cultured in triplicates in RPMI with 10% FBS and Pen/Strep in presence of TGF-β1 (10 ng/ml R&D systems), TGF-β1 and galunisertib (1 μM MedChemExpress), galunisertib alone or mock treated. In the HIV latency reactivation conditions, PMA (Phorbol 12-myristate 13-acetate, SigmaAldrich) was added at 100 ng/ml together with galunisertib or TGF-β1. After 18 hrs, cells were stained intracellularly for p24 using the KC57 antibody (NIH HIV Reagent Program) as previously described (74).

[4] = tested on: T and NK cells; assay: High parameter flow cytometry of PBMC T and NK cells; assay type: in vivo, rhesus macaques
Description: Colorectal biopsy tissues were isolated by enzymatic digestion while LN biopsies were passed through a 70 μm cell strainer as described in (110). FlowJo vs 10.8 was use for both classical and high-dimensional analysis. PeacoQC, FlowtSNE and FlowSOM plug-ins were used with default settings. SwiftReg was used for normalization (113).
Peripheral blood mononuclear cells (PBMCs) collected from 8 macaques at 7 time points spanning Cycle 1 to Cycle 4 (refer to Table 5) were employed for high-parameter flow cytometry staining. Cells from before and after cycle 1 and at the end of cycle 3 were used for Tfh/Treg assay. In both cases, cell fixation and permeabilization for intracellular staining were carried out using the FoxP3 Staining Buffer set (Thermo Fisher Scientific, Carlsbad, CA). The high-dimensional panel consisted of antibodies outlined in Table 4, catering to requirements for surface and intracellular staining, as well as viability assessment. Each antibody was individually titrated to ensure optimal staining conditions. Data acquisition was performed using the FACSymphony A5.2 Spectral Analyzer. Following data collection, spectral compensation was implemented utilizing FlowJo™ v10.8 Software (BD Life Sciences). 60,000 live singlet lymphocytes from each of samples was downsampled to prevent disproportionate representation by samples with higher cell counts, ensuring balanced subsequent analysis. To mitigate batch effects, we utilized the swiftReg Neighbor-Dependent Cluster Registration (NDCR) method available within the SWIFT package(112). This method effectively addresses batch variations while preserving the inherent biological diversity. […] Furthermore, we implemented the Peak Extraction and Cleaning Oriented Quality Control (PeacoQC) procedure (138) in FlowJo™ v10.8 to eliminate low-quality events arising from potential issues like clogs, speed fluctuations, and slow sample uptake. FlowSOM FlowJo plugin was employed for automated cell population identification, preceded by the utilization of Phenograph to obtain optimal cluster numbers for dimensional reduction, for the merged data of All Time points and BC1 vs AC4 merged data respectively. The Supplementary FIG. 29A heatmap illustrates the median fluorescence intensity (MFI) values for all markers across all clusters. A tSNE plot, generated in FlowJo™ using the markers employed in the FlowSOM analysis, is presented, with coloring based on the FlowSOM clustering or two specific time points, BC1 vs AC4 in FIG. 4G.

[5] = tested on: SIVmac239M2; assay: Cell-associated vDNA in PBMC, colorectal biopsies and lymph nodes; assay type: in vivo, rhesus macaques
Method: as §1

Cc1cccc(-c2nn3c(c2-c2ccnc4ccc(C(N)=O)cc24)CCC3)n1 [galunisertib, Galunisertib]
decrease of intact pro-virus in PBMC ([1]; BC1 (week 35 pi) to AC4 (week 49 pi), median): 3 fold | intact provirus decline by SIV-IPDA, median ([1]; PBMC, BC1 vs AC4): 0.53 folds | intact provirus decline by SIV-IPDA, range ([1]; PBMC, BC1 vs AC4): 0-0.71 folds | total and intact provirus by SIV-IPDA ([1]; PBMC, BC1 vs AC4): significant decreases | increase in the titer of SIV-env specific antibodies [2]: 0.5 to 1 Log | frequency of p24-gag+ cells in unstimulated cultures ([3]; U1 cells, no PMA, TGF-β1 10 ng/ml or galunisertib 1 μM alone): slightly increase | frequency of p24-gag+ cells in the presence of exogenous TGF-β1 ([3]; U1 cells, TGF-β1 10 ng/ml + galunisertib 1 μM, with or without PMA): restores the frequency of p24-gag+ cells | frequency of p24-gag+ cells in PMA-stimulated U1 cells ([3]; galunisertib 1 μM alone, PMA 100 ng/ml): no impact | proliferation marker Ki67 in NK cells ([4]; AC1 vs BC1): initial increase | T-Bet in CD8+ T cells ([4]; BC2 vs BC1): significant decrease | systemic immune activation ([4]; Example 5, end of 1st cycle, PBMC RNAseq, CD69 and CD38 on T cells): did non induce systemic immune activation | effector phenotype in T cells (CD95, CD62L) ([4]; Example 5, preliminary data): increased expression of CD95 | TCF1 expression in CD4+ T cells ([4]; PBMC, throughout treatment): profound consistent decrease | expression of CD95 in CD4+ T cells ([4]; PBMC, throughout treatment): substantial increase | CD62L in CD4+ T cells ([4]; after the first cycle, reverted to baseline later): small decrease | expression of activation markers CD69, HLA-DR and Ki67 in CD4+ T cells ([4]; exception: HLA-DR increase at beginning of cycle 2): remained mostly unchanged | CCR7 expression in memory CD8+ T cells ([4]; rhesus monkey, in vivo): sustained significant increase | CD16 expression within NKG2A+CD8+ NK cells ([4]; rhesus monkey, in vivo): pronounced increase | CD95 expression in CD8+ T cells ([4]; rhesus monkey, in vivo): No significant increase | TCF1 downregulation in CD8+ T cells ([4]; rhesus monkey, in vivo): reached significance only at the end of the treatment | expression of CCR7 or CD28 within CD95+CD4+ T cells ([4]; rhesus monkey, in vivo): no change | expression of PD1 on CD4+ and CD8+ T cells ([4]; rhesus monkey, in vivo): either did not change or was slightly downregulated | frequency of naïve (CD95−) cells within CD4+ T cells ([4]; rhesus monkey, in vivo): decreased | gut homing receptor integrin α4β7 in CD4+ T cells ([4]; rhesus monkey, in vivo): downregulation | levels of T-bet in CD4+ T cells ([4]; rhesus monkey, in vivo): did not change significantly | levels of granzyme B in CD4+ T cells ([4]; rhesus monkey, in vivo): decrease | cell-associated SIV DNA in lymph nodes, gut and PBMC ([5]; 8 macaques, four 2-week cycles): Half to 1 Log decrease | CA-vDNA decrease in gut, median ([5]; BC1 (week 35 pi) vs AC4 (week 49 pi)): 0.77 folds | CA-vDNA decrease in PBMC, range ([5]; BC1 vs AC3): 0.28-0.88 folds | CA-vDNA decrease in gut, range ([5]; BC1 vs AC4): 0.33-0.94 folds | CA-vDNA decrease in PBMC, median ([5]; BC1 vs end of cycle 3 (AC3)): 0.58 folds | cell-associated viral DNA in lymph nodes and colorectal biopsies ([5]; Example 5, end of cycle 4 vs before Gal): decreased by over a Log | CA-vDNA decrease in LN, median ([5]; right axillary LN, BC1 vs AC4): 0.93 folds | CA-vDNA decrease in LN, range ([5]; right axillary LN, BC1 vs AC4): 0.33-0.98 folds
